# Measured values as given in patent US20240158446A1, “CYCLIC COMPOUND HAVING SELECTIVE INHIBITORY ACTION ON KRAS OVER HRAS AND NRAS” (CHUGAI SEIYAKU KABUSHIKI KAISHA, priority 2021, published 2024).
# Legend:
# [1] = target: GDP-bound NRAS wild-type protein (Homo sapiens, UniProt P01111); experiment: Binding to NRAS by surface plasmon resonance (SPR), Single Cycle Kinetics; conditions: SPR KD ratio NRAS/KRAS, class symbols
# [2] = target: GDP-bound HRAS wild-type protein (Homo sapiens, UniProt P01112); experiment: Binding to HRAS by surface plasmon resonance (SPR), Single Cycle Kinetics; conditions: SPR KD ratio HRAS/KRAS, class symbols
# Chain of GDP-bound HRAS wild-type protein (P01112 whole entry): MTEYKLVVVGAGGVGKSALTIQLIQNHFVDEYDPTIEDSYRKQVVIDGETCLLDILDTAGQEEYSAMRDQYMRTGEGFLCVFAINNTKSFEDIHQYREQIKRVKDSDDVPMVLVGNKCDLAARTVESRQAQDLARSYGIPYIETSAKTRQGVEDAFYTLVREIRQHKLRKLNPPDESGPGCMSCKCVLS
# Chain of GDP-bound NRAS wild-type protein (P01111 whole entry): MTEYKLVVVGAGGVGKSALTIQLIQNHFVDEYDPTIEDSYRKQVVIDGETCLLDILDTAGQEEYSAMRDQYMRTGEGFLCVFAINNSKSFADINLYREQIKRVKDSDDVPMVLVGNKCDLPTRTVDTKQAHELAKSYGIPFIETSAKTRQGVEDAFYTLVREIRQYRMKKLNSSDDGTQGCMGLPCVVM
Structure (SMILES),NRAS/KRAS (ratio of KD value with respect to GDP-bound NRAS wild-type protein to KD value with respect to KRAS) [1],HRAS/KRAS (ratio of KD value with respect to GDP-bound HRAS wild-type protein to KD value with respect to KRAS) [2]
CCC[C@H]1C(=O)N[C@@H]([C@@H](C)CC)C(=O)N(C2CC2)CC(=O)N(C)[C@H]2C/C=C\CCN(C2=O)[C@@H](Cc2ccc(C)cc2)C(=O)N(C)CC(=O)N[C@@H](CCc2cc(F)c(CC)c(OC)c2)C(=O)N2C[C@H](OCC)C[C@H]2C(=O)NC2(CC(C)(C)C2)C(=O)N(C)[C@@H](C2CCCC2)C(=O)N(C)[C@H](C(=O)N(C)C)CC(=O)N1C [PP2872],A (a compound having 10 or more and less than 20 is denoted as A),A (a compound having 10 or more and less than 20 is denoted as A)
CCC[C@H]1C(=O)N[C@@H]([C@@H](C)CC)C(=O)N(C2CC2)CC(=O)N(C)[C@H]2C/C=C\CCN(C2=O)[C@@H](Cc2ccc(C)cc2)C(=O)N(C)CC(=O)N[C@@H](CCc2cc(C)c(C(F)F)c(C)c2)C(=O)N2C[C@H](OCC)C[C@H]2C(=O)NC2(CC(C)(C)C2)C(=O)N(C)[C@@H](C2CCCC2)C(=O)N(C)[C@H](C(=O)N(C)C)CC(=O)N1C [PP2873],A (a compound having 10 or more and less than 20 is denoted as A),A (a compound having 10 or more and less than 20 is denoted as A)
CCC[C@H]1C(=O)N[C@@H]([C@@H](C)CC)C(=O)N(C2CC2)CC(=O)N(C)[C@H]2C/C=C\CCN(C2=O)[C@@H](Cc2ccc(C)cc2)C(=O)N(C)CC(=O)N[C@@H](CCc2cc(C)c(C(F)F)c(F)c2)C(=O)N2C[C@H](OCC)C[C@H]2C(=O)NC2(CC(C)(C)C2)C(=O)N(C)[C@@H](C2CCCC2)C(=O)N(C)[C@H](C(=O)N(C)C)CC(=O)N1C [PP2874],A (a compound having 10 or more and less than 20 is denoted as A),A (a compound having 10 or more and less than 20 is denoted as A)
CCC[C@H]1C(=O)N[C@@H]([C@@H](C)CC)C(=O)N(C2CC2)CC(=O)N(C)[C@H]2C/C=C\CCN(C2=O)[C@@H](Cc2ccc(C)cc2)C(=O)N(C)CC(=O)N[C@@H](CCc2cc(C)c(C(F)F)c(Cl)c2)C(=O)N2C[C@H](OCC)C[C@H]2C(=O)NC2(CC(C)(C)C2)C(=O)N(C)[C@@H](C2CCCC2)C(=O)N(C)[C@H](C(=O)N(C)C)CC(=O)N1C [PP2875],A (a compound having 10 or more and less than 20 is denoted as A),A (a compound having 10 or more and less than 20 is denoted as A)
CCC[C@H]1C(=O)N[C@@H]([C@@H](C)CC)C(=O)N(C2CC2)CC(=O)N(C)[C@H]2C/C=C\CCN(C2=O)[C@@H](Cc2ccc(C)cc2)C(=O)N(C)CC(=O)N[C@@H](CCc2cc(Cl)c(C(F)F)c(Cl)c2)C(=O)N2C[C@H](OCC)C[C@H]2C(=O)NC2(CC(C)(C)C2)C(=O)N(C)[C@@H](C2CCCC2)C(=O)N(C)[C@H](C(=O)N(C)C)CC(=O)N1C [PP2877],A (a compound having 10 or more and less than 20 is denoted as A),A (a compound having 10 or more and less than 20 is denoted as A)
CCC[C@H]1C(=O)N[C@@H]([C@@H](C)CC)C(=O)N(C2CC2)CC(=O)N(C)[C@H]2C/C=C\CCN(C2=O)[C@@H](Cc2ccc(C)cc2)C(=O)N(C)CC(=O)N[C@@H](CCc2cc(F)c3c(c2)CCC3)C(=O)N2C[C@H](OCC)C[C@H]2C(=O)NC2(CC(C)(C)C2)C(=O)N(C)[C@@H](C2CCCC2)C(=O)N(C)[C@H](C(=O)N(C)C)CC(=O)N1C [PP2879],A (a compound having 10 or more and less than 20 is denoted as A),A (a compound having 10 or more and less than 20 is denoted as A)
CCC[C@H]1C(=O)N[C@@H]([C@@H](C)CC)C(=O)N(C2CC2)CC(=O)N(C)[C@H]2C/C=C\CCN(C2=O)[C@@H](Cc2ccc(C)cc2)C(=O)N(C)CC(=O)N[C@@H](CCc2cc(F)c3c(c2)OCC3)C(=O)N2C[C@H](OCC)C[C@H]2C(=O)NC2(CC(C)(C)C2)C(=O)N(C)[C@@H](C2CCCC2)C(=O)N(C)[C@H](C(=O)N(C)C)CC(=O)N1C [PP2880],A (a compound having 10 or more and less than 20 is denoted as A),A (a compound having 10 or more and less than 20 is denoted as A)
CCC[C@H]1C(=O)N[C@@H]([C@@H](C)CC)C(=O)N(C2CC2)CC(=O)N(C)[C@H]2C/C=C\CCN(C2=O)[C@@H](Cc2ccc(C)cc2)C(=O)N(C)CC(=O)N[C@@H](CCc2ccc(C(F)(F)F)c(C3CC3)c2)C(=O)N2C[C@H](OCC)C[C@H]2C(=O)NC2(CC(C)(C)C2)C(=O)N(C)[C@@H](C2CCCC2)C(=O)N(C)[C@H](C(=O)N(C)C)CC(=O)N1C [PP2881],A (a compound having 10 or more and less than 20 is denoted as A),A (a compound having 10 or more and less than 20 is denoted as A)
CCC[C@H]1C(=O)N[C@@H]([C@@H](C)CC)C(=O)N(C2CC2)CC(=O)N(C)[C@H]2C/C=C\CCN(C2=O)[C@@H](Cc2ccc(C)cc2)C(=O)N(C)CC(=O)N[C@@H](CCc2ccc(C3CC3)c(OC)c2)C(=O)N2C[C@H](OCC)C[C@H]2C(=O)NC2(CC(C)(C)C2)C(=O)N(C)[C@@H](C2CCCC2)C(=O)N(C)[C@H](C(=O)N(C)C)CC(=O)N1C [PP2883],A (a compound having 10 or more and less than 20 is denoted as A),A (a compound having 10 or more and less than 20 is denoted as A)
CCC[C@H]1C(=O)N[C@@H]([C@@H](C)CC)C(=O)N(C2CC2)CC(=O)N(C)[C@H]2C/C=C\CCN(C2=O)[C@@H](Cc2ccc(C)cc2)C(=O)N(C)CC(=O)N[C@@H](CCc2ccc(C3CC3)c(F)c2)C(=O)N2C[C@H](OCC)C[C@H]2C(=O)NC2(CC(C)(C)C2)C(=O)N(C)[C@@H](C2CCCC2)C(=O)N(C)[C@H](C(=O)N(C)C)CC(=O)N1C [PP2884],A (a compound having 10 or more and less than 20 is denoted as A),A (a compound having 10 or more and less than 20 is denoted as A)
CCC[C@H]1C(=O)N[C@@H]([C@@H](C)CC)C(=O)N(C2CC2)CC(=O)N(C)[C@H]2C/C=C\CCN(C2=O)[C@@H](Cc2ccc(C)cc2)C(=O)N(C)CC(=O)N[C@@H](CCc2ccc(C3CC3)c(Cl)c2)C(=O)N2C[C@H](OCC)C[C@H]2C(=O)NC2(CC(C)(C)C2)C(=O)N(C)[C@@H](C2CCCC2)C(=O)N(C)[C@H](C(=O)N(C)C)CC(=O)N1C [PP2885],A (a compound having 10 or more and less than 20 is denoted as A),A (a compound having 10 or more and less than 20 is denoted as A)
CCC[C@H]1C(=O)N[C@@H]([C@@H](C)CC)C(=O)N(C2CC2)CC(=O)N(C)[C@H]2C/C=C\CCN(C2=O)[C@@H](Cc2ccc(C)cc2)C(=O)N(C)CC(=O)N[C@@H](CCc2ccc(C3CC3)c(C)c2)C(=O)N2C[C@H](OCC)C[C@H]2C(=O)NC2(CC(C)(C)C2)C(=O)N(C)[C@@H](C2CCCC2)C(=O)N(C)[C@H](C(=O)N(C)C)CC(=O)N1C [PP2886],A (a compound having 10 or more and less than 20 is denoted as A),A (a compound having 10 or more and less than 20 is denoted as A)
CCC[C@H]1C(=O)N[C@@H]([C@@H](C)CC)C(=O)N(C)CC(=O)N(C)[C@H]2C/C=C\CCN(C2=O)[C@@H](Cc2ccc(C)cc2)C(=O)N(C)CC(=O)N[C@@H](CCc2ccc3sc(C)c(C)c3c2)C(=O)N2C[C@H](OCC)C[C@H]2C(=O)NC2(CC(C)(C)C2)C(=O)N(C)[C@@H](C2CCCC2)C(=O)N(C)[C@H](C(=O)N(C)C)CC(=O)N1C [PP2891],A (a compound having 10 or more and less than 20 is denoted as A),B (a compound having 3 or more and less than 10 is denoted as B)
CCC[C@H]1C(=O)N[C@@H]([C@@H](C)CC)C(=O)N(C)CC(=O)N(C)[C@H]2C/C=C\CCN(C2=O)[C@@H](Cc2ccc(C(F)(F)F)cc2)C(=O)N(C)CC(=O)N[C@@H](CCc2ccc3c(C)c(C)n(C)c3c2)C(=O)N2C[C@H](OCC)C[C@H]2C(=O)NC2(CC(C)(C)C2)C(=O)N(C)[C@@H](C(CC)CC)C(=O)N(C)[C@H](C(=O)N(C)C)CC(=O)N1C [PP2904],AA (a compound having 20 or more is denoted as AA),A (a compound having 10 or more and less than 20 is denoted as A)
CCC[C@H]1C(=O)N[C@@H]([C@@H](C)CC)C(=O)N(C)CC(=O)N(C)[C@H]2C/C=C\CCN(C2=O)[C@@H](Cc2ccc(C)cc2)C(=O)N(C)CC(=O)N[C@@H](CCc2ccc3c(C)c(C)n(C)c3c2)C(=O)N2C[C@H](OCC)C[C@H]2C(=O)NC2(CC(C)(C)C2)C(=O)N(C)[C@@H](C(CC)CC)C(=O)N(C)[C@H](C(=O)N(C)C)CC(=O)N1C [PP2906],A (a compound having 10 or more and less than 20 is denoted as A),A (a compound having 10 or more and less than 20 is denoted as A)
CCC[C@H]1C(=O)N[C@@H]([C@@H](C)CC)C(=O)N(C)CC(=O)N(C)[C@H]2C/C=C\CCN(C2=O)[C@@H](Cc2ccc(C)cc2)C(=O)N(C)CC(=O)N[C@@H](CCc2ccc3c(C)cn(C)c3c2)C(=O)N2C[C@H](OCC)C[C@H]2C(=O)NC2(CC(C)(C)C2)C(=O)N(C)[C@@H](C(CC)CC)C(=O)N(C)[C@H](C(=O)N(C)C)CC(=O)N1C [PP2910],AA (a compound having 20 or more is denoted as AA),A (a compound having 10 or more and less than 20 is denoted as A)
